System: human monocytic cell line U937
Assay: Human U937 cellular necroptosis assay (TNFalpha + z-VAD-FMK, Cell Titer-Glo viability)
Format: cell-based
Details: Homo sapiens, U-937, 22 h, U937 cells, 25 ng/mL human TNFalpha + 25 μM z-VAD-FMK, read-out: hU937 Avg IC50
Procedure, shortened: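 Readout is CellTiter-Glo 2.0 luminescence after 22 h at 37° C with compound, in cells triggered by human TNFalpha (25 ng/mL) and z-VAD-FMK (25 μM) in phenol red-free RPMI/10% FBS. Values are run-averaged IC50s from a four-parameter logistic curve.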

**Q.** Which IC50 does the source give for CC(c1cc(F)ccc1F)N(C)C(=O)C12CC(COc3cnc(C#N)cn3)(C1)C2 (centres unmarked) [Example 301, 3-(((5-cyanopyrazin-2-yl)oxy)-methyl)-N-(1-(2,5-difluoro-phenyl)ethyl)-N-methyl-bicyclo[1.1.1]pentane-1-carboxamide] here?
**A.** 7740 nM

**Q.** How did the IC50 turn out when Cc1cc2n(CC34CC(C(=O)N5N=CCC5c5cc(F)cc(F)c5)(C3)C4)ccn2n1 (centres unmarked) [Example 216, (5-(3,5-difluorophenyl)-4,5-dihydro-1H-pyrazol-1-yl)(3-((6-methyl-1H-imidazo[1,2-b]pyrazol-1-yl)methyl)bicyclo-[1.1.1]pentan-1-yl)methanone] was run?
**A.** 92 nM

**Q.** Which IC50 does the source give for CN(CC12CC(C(=O)N3N=CCC3c3cc(F)cc(F)c3)(C1)C2)c1cnc(C#N)cn1 (centres unmarked) [Example 206, 5-(((3-(5-(3,5-Difluorophenyl)-4,5-dihydro-1H-pyrazole-1-carbonyl)bicyclo[1.1.1]pentan-1-yl)methyl)(methyl)amino)pyrazine-2-carbonitrile] here?
**A.** 109 nM

**Q.** With Cc1cnc(C2CC=NN2C(=O)C23CC(Cn4ncc5nc(C#N)ccc54)(C2)C3)cn1 (centres unmarked) [Example 235, 1-((3-(5-(5-methylpyrazin-2-yl)-4,5-dihydro-1H-pyrazole-1-carbonyl)bicyclo[1.1.1]-pentan-1-yl)methyl)-1H-pyrazolo[4,3-b]pyridine-5-carbonitrile] as the molecule, how does the IC50 read?
**A.** 339 nM

**Q.** Cc1ccc(C2CC=NN2C(=O)C23CC(COc4cnc(C#N)cn4)(C2)C3)cn1 (centres unmarked) [Example 289, 5-((3-(5-(6-methylpyridin-3-yl)-4,5-dihydro-1H-pyrazole-1-carbonyl)bicyclo[1.1.1]-pentan-1-yl)methoxy)pyrazine-2-carbonitrile] was tested. Which IC50 did it give?
**A.** 281 nM

**Q.** With N#Cc1cnc(OCC23CC(C(=O)N4CC(F)CC4c4cccc(F)c4)(C2)C3)cn1 (centres unmarked) [Example 283] as the molecule, how does the IC50 read?
**A.** 160 nM

**Q.** With Cc1ccc(C2CC=NN2C(=O)C23CC(Cn4ncc5cc(C#N)ccc54)(C2)C3)cn1 (centres unmarked) [Example 249, 1-((3-(5-(6-methylpyridin-3-yl)-4,5-dihydro-1H-pyrazole-1-carbonyl)bicyclo[1.1.1]-pentan-1-yl)methyl)-1H-indazole-5-carbonitrile] as the molecule, how does the IC50 read?
**A.** 299 nM

**Q.** For N#Cc1cnc(OCC23CC(C(=O)NCc4cc(F)ccc4F)(C2)C3)cn1 [Example 298, 3-(((5-cyanopyrazin-2-yl)oxy)-methyl)-N-(2,5-difluoro-benzyl)bicyclo[1.1.1]pentane-1-carboxamide], which IC50 is on record?
**A.** 6700 nM

**Q.** How did the IC50 turn out when N#Cc1cnc(OCC23CC(C(=O)NCc4cccc(F)c4F)(C2)C3)cn1 [Example 296, 3-(((5-cyanopyrazin-2-yl)-oxy)methyl)-N-(2,3-difluoro-benzyl)bicyclo[1.1.1]pentane-1-carboxamide] was run?
**A.** 5850 nM

**Q.** Cc1c(F)cc([C@H]2CC=NN2C(=O)C23CC(COc4ccc(C#N)cn4)(C2)C3)cc1F [Example 266, (R)-6-((3-(5-(3,5-difluoro-4-methylphenyl)-4,5-dihydro-1H-pyrazole-1-carbonyl)-bicyclo[1.1.1]pentan-1-yl)-methoxy)nicotinonitrile] was tested. Which IC50 did it give?
**A.** 1800 nM

**Q.** How did the IC50 turn out when Cc1ccc(C2CC=NN2C(=O)C23CC(COc4cnc(C#N)cn4)(C2)C3)c(F)c1 (centres unmarked) [Example 267, 5-((3-(5-(2-fluoro-4-methyl-phenyl)-4,5-dihydro-1H-pyrazole-1-carbonyl)bicyclo-[1.1.1]pentan-1-yl)methoxy)-pyrazine-2-carbonitrile] was run?
**A.** 3.8 nM

**Q.** With COc1ccc(C(O)C23CC(C(=O)N4N=CCC4c4cc(F)cc(F)c4)(C2)C3)cc1 (centres unmarked) [Example 231, (5-(3,5-difluorophenyl)-4,5-dihydro-1H-pyrazol-1-yl)(3-(hydroxy(4-methoxyphenyl)-methyl)bicyclo[1.1.1]pentan-1-yl)methanone] as the molecule, how does the IC50 read?
**A.** 3040 nM

**Q.** For N#Cc1ccc(OCC23CC(C(=O)N4N=CCC4c4ncccc4F)(C2)C3)nc1 (centres unmarked) [Example 303, 6-((3-(5-(3-fluoropyridin-2-yl)-4,5-dihydro-1H-pyrazole-1-carbonyl)bicyclo[1.1.1]-pentan-1-yl)methoxy)-nicotinonitrile], which IC50 is on record?
**A.** 500 nM

**Q.** With O=C(N1N=CCC1c1cc(F)cc(F)c1)C12CC(COc3ncc(Cl)cn3)(C1)C2 (centres unmarked) [Example 322, (3-(((5-chloropyrimidin-2-yl)oxy)methyl)bicyclo[1.1.1]-pentan-1-yl)(5-(3,5-difluoro-phenyl)-4,5-dihydro-1H-pyrazol-1-yl)methanone] as the molecule, how does the IC50 read?
**A.** 60 nM

**Q.** For Cc1cc(F)c(C2CC=NN2C(=O)C23CC(COc4ccc(C#N)cn4)(C2)C3)cc1F (centres unmarked) [Example 305, 6-((3-(5-(2,5-difluoro-4-methylphenyl)-4,5-dihydro-1H-pyrazole-1-carbonyl)-bicyclo[1.1.1]pentan-1-yl)-methoxy)nicotinonitrile], which IC50 is on record?
**A.** 6.5 nM

**Q.** How did the IC50 turn out when C[C@H](NC(=O)C12CC(COc3cnc(C#N)cn3)(C1)C2)c1cc(F)ccc1F [Example 297, (S)-3-(((5-cyanopyrazin-2-yl)-oxy)methyl)-N-(1-(2,5-difluorophenyl)ethyl)bicyclo-[1.1.1]pentane-1-carboxamide] was run?
**A.** 6060 nM

**Q.** With N#Cc1cnc(OCC23CC(C(=O)N4N=CCC4c4cnccn4)(C2)C3)cn1 (centres unmarked) [Example 274, 5-((3-(5-(pyrazin-2-yl)-4,5-dihydro-1H-pyrazole-1-carbonyl)bicyclo[1.1.1]pentan-1-yl)methoxy)pyrazine-2-carbonitrile] as the molecule, how does the IC50 read?
**A.** 61 nM

**Q.** How did the IC50 turn out when C[C@@H](c1ccccc1F)N(C)C(=O)C12CC(COc3cnc(C#N)cn3)(C1)C2 [Example 295, (S)-3-(((5-cyanopyrazin-2-yl)oxy)methyl)-N-(1-(2-fluoro-phenyl)ethyl)-N-methyl-bicyclo[1.1.1]pentane-1-carboxamide] was run?
**A.** 5680 nM

**Q.** Which IC50 does the source give for Cc1cc(F)c(C2CC=NN2C(=O)C23CC(COc4cnc(-c5cnn(C)c5)cn4)(C2)C3)cc1F (centres unmarked) [Example 345, (5-(2,5-difluoro-4-methylphenyl)-4,5-dihydro-1H-pyrazol-1-yl)(3-(((5-(1-methyl-1H-pyrazol-4-yl)pyrazin-2-yl)oxy)methyl)bicyclo[1.1.1]pentan-1-yl)methanone] here?
**A.** 61 nM

**Q.** For N#Cc1cnc(OCC23CC(C(=O)N4N=CCC4c4cncc(F)c4)(C2)C3)cn1 (centres unmarked) [Example 277, 5-((3-(5-(5-fluoropyridin-3-yl)-4,5-dihydro-1H-pyrazole-1-carbonyl)bicyclo[1.1.1]-pentan-1-yl)methoxy)pyrazine-2-carbonitrile], which IC50 is on record?
**A.** 81 nM

**Q.** Which IC50 does the source give for N#Cc1ccc2c(cnn2CC23CC(C(=O)N4N=CCC4c4ccc(C#N)s4)(C2)C3)c1 (centres unmarked) [Example 251, 1-((3-(5-(5-cyanothiophen-2-yl)-4,5-dihydro-1H-pyrazole-1-carbonyl)bicyclo[1.1.1]-pentan-1-yl)methyl)-1H-indazole-5-carbonitrile] here?
**A.** 397 nM

**Q.** How did the IC50 turn out when N#Cc1cc2cnn(CC34CC(C(=O)N5N=CCC5c5cc(F)cc(F)c5)(C3)C4)c2cc1Cl (centres unmarked) [Example 214, 6-chloro-1-((3-(5-(3,5-difluorophenyl)-4,5-dihydro-1H-pyrazole-1-carbonyl)-bicyclo[1.1.1]pentan-1-yl)-methyl)-1H-indazole-5-carbonitrile] was run?
**A.** 71 nM

**Q.** N#Cc1ccc2c(cnn2CC23CC(C(=O)N4N=CCC4c4cccc(F)c4F)(C2)C3)c1 (centres unmarked) [Example 237, 1-((3-(5-(2,3-difluoropheny1)-4,5-dihydro-1H-pyrazole-1-carbonyl)bicyclo[1.1.1]pentan-1-yl)methyl)-1H-indazole-5-carbonitrile] was tested. Which IC50 did it give?
**A.** 7.8 nM
